{"source": "patent US20090155338A1", "about": "“Chronotherapeutic Ocular Delivery System Comprising a Combination of Prostaglandin and a Beta-Blocker for Treating Primary Glaucoma” (ASTON UNIVERSITY, priority 2005, published 2009)", "key": {"[1]": {"conditions": "hydrochloride salt, cited from earlier work"}, "[2]": {"test_system": "IOP", "conditions": "cited from earlier work; for efficiency in decreasing the 24-h IOP: compared with agents that decrease AH production"}, "[3]": {"conditions": "cited from earlier work"}, "[4]": {"conditions": "cited from earlier work", "remark": "listed apart in the source"}, "[5]": {"assay": "In vitro delivery of drug from ocular inserts in a humidified Franz-diffusion cell, artificial lachrymal fluid receiver, HPLC", "format": "physicochemical", "from_the_text": "Delivery is monitored in vitro using a Franz-diffusion cell, with the insert in contact with a dialysis membrane to provide support. A membrane with an appropriate molecular weight cut-off is used to allow the passage of pharmaceutical product but not polymer. The receiver solution is an artificial lachrymal fluid, containing NaHCO3 2.2 g/l; NaCl 6.26 g/l; KCl 1.79 g/l; CaCl2.2H2O 0.0735 g/l; MgCl2.6H2O 0.0964 g/l in distilled water (pH to 7.5 with 0.1 M HCl). The temperature used in the diffusion cells is controlled so the internal temperature is 32° C. (the temperature of the corneal surface). The tops of the diffusion cells are sealed using parafilm and the system equilibrated overnight (to give a humid environment). The insert is weighed, then placed on the dialysis membrane and resealed. Samples of delivered pharmaceutical product are removed from the receiver fluid and replaced with fresh liquid to maintain a constant volume. Pharmaceutical product in the receiver fluid is analysed by HPLC. Samples of 1 ml are withdrawn and replaced at given intervals through the side arm. The insert is placed in the donor at time 0. Samples were analysed using HPLC methods described above. It is recommended that betaxolol is analysed within 24 h, or samples frozen. The quantity of drug which has been released at any given time can be calculated using the following equation: […] wherein: Vr is the volume of receiver (ml) Vs the sample volume C[n] is the concentration in the dissolution medium (mg/l) ΣC[m] is the sum total of previous concentrations (mg/l) Mt is the drug released at time t (mg)"}}, "note": "Counter-ions that a name gives are not always drawn."}
{"molecule": "CC(C)NCC(O)COc1ccc(CCOCC2CC2)cc1", "note": "(stereo not shown) [Betaxolol]", "values": [{"measurement": "time of maximum effect", "setting": "[1]; after topical administration", "value": "about 2 hours"}, {"measurement": "onset of action", "setting": "[1]; topical administration", "value": "≤ 30", "unit": "min"}]}
{"molecule": "CCNC(=O)CCC/C=C\\C[C@@H]1[C@@H](/C=C/[C@@H](O)CCc2ccccc2)[C@H](O)C[C@@H]1O", "note": "[bimatoprost]", "values": [{"measurement": "efficiency in decreasing the 24-h IOP", "setting": "[2]", "value": "more efficient in decreasing the 24-h IOP"}]}
{"molecule": "O=C(O)CCC/C=C\\C[C@@H]1[C@@H](CC[C@@H](O)CCc2ccccc2)[C@H](O)C[C@@H]1O", "note": "[latanoprost acid]", "values": [{"measurement": "half-life in aqueous humor", "setting": "[3]", "value": 2.8, "unit": "h"}]}
{"molecule": "CC(C)OC(=O)CCC/C=C\\C[C@@H]1[C@@H](CC[C@@H](O)CCc2ccccc2)[C@H](O)C[C@@H]1O", "note": "[latanoprost]", "values": [{"measurement": "efficiency in decreasing the 24-h IOP", "setting": "[2]", "value": "more efficient in decreasing the 24-h IOP"}, {"measurement": "solubility in acetone and ethanol", "setting": "[4]; acetone and ethanol", "value": "soluble"}, {"measurement": "solubility in water", "setting": "[4]; water", "value": "insoluble"}]}
{"molecule": "CC(C)(C)NC[C@H](O)COc1nsnc1N1CCOCC1", "note": "[timolol, timolol maleate]", "values": [{"measurement": "capacity in decreasing IOP at night", "setting": "[2]; night", "value": "reduced capacity in decreasing IOP at night"}, {"measurement": "timolol released by 6 hours from the beginning of the experiment", "setting": "[5]; laminated travoprost/timolol insert, 6 hours", "value": "over 90%"}, {"measurement": "timolol released for the first 5 hours", "setting": "[5]; laminated travoprost/timolol insert, first 5 hours", "value": "essentially no timolol was released"}]}
{"molecule": "CC(C)OC(=O)CCC/C=C\\C[C@@H]1[C@@H](/C=C/[C@@H](O)COc2cccc(C(F)(F)F)c2)[C@H](O)C[C@@H]1O", "note": "[travoprost]", "values": [{"measurement": "efficiency in decreasing the 24-h IOP", "setting": "[2]", "value": "more efficient in decreasing the 24-h IOP"}, {"measurement": "period over which travoprost was released at a substantially constant rate", "setting": "[5]; laminated travoprost/timolol insert, humidity, 32° C., FIG. 5", "value": "about 8 hours"}, {"measurement": "period over which travoprost was released at a substantially-constant rate", "setting": "[5]; single layer PEO insert with 10% carbopol, travoprost alone, humidity, 32° C., FIG. 4", "value": "about 8 hours"}]}
